The text below walks through data of ChEMBL document CHEMBL4138123, “Design, synthesis and biological evaluation of novel pyrazolochalcones as potential modulators of PI3K/Akt/mTOR pathway and inducers of apoptosis in breast cancer cells” (Eur J Med Chem, 2017).

SMILES strings stand for the structures.

A word on the IC50: it is the concentration at which inhibition is half-maximal.

Assay [1] deals with MDA-MB-231. Briefly: Cytotoxicity against human MDA-MB-231 cells assessed as growth inhibition after 48 hrs by MTT assay. In kind it is functional, cell-based. The settings on record: MDA-MB-231, 48 h.
Assay [2] relates to MCF7. Briefly: Cytotoxicity against human MCF7 cells assessed as growth inhibition after 48 hrs by MTT assay. In kind it is functional, cell-based. Conditions: MCF7, 48 h.
The test system of assay [3] is MCF7. Briefly: Cell cycle arrest in human MCF7 cells assessed as accumulation at G2/M phase at 2 uM after 24 hrs by flow cytometric analysis (reference value: 2.35%). In kind it is functional. (In general: A flow cytometer gives signals particle by particle.)
Assay [4] has as its system MCF7. In words: Induction of intrinsic apoptosis in human MCF7 cells assessed as effect on mitochondrial membrane depolarization at 2 uM after 5 hrs by DiOC6 staining-based FACS analysis relative to control. In kind it is functional.
The test system of assay [5] is MCF7. Briefly: Induction of apoptosis in human MCF7 cells assessed as viable cells at 2 uM after 24 hrs by Annexin-V FITC/propidium iodide staining-based FACS analysis (reference value: 93.9%). In kind it is functional. Conditions: MCF7, 24 h, read-out: Activity.
The test system of assay [6] is MCF7. Briefly: Cell cycle arrest in human MCF7 cells assessed as accumulation at G0/G1 phase at 2 uM after 48 hrs by flow cytometric analysis (reference value: 34.2%). In kind it is functional.
The test system of assay [7] is MCF7. Briefly: Induction of apoptosis in human MCF7 cells assessed as necrotic cells at 2 uM after 24 hrs by Annexin-V FITC/propidium iodide staining-based FACS analysis (reference value: 0.2%). In kind it is functional.
Assay [8] concerns MCF7. In words: Cell cycle arrest in human MCF7 cells assessed as accumulation at S phase at 2 uM after 24 hrs by flow cytometric analysis (reference value: 79.1%). In kind it is functional.
Assay [9] deals with MCF7. Briefly: Cell cycle arrest in human MCF7 cells assessed as accumulation at S phase at 2 uM after 48 hrs by flow cytometric analysis (reference value: 57.7%). In kind it is functional.
The subject of assay [10] is MCF7. In words: Induction of intrinsic apoptosis in human MCF7 cells assessed as effect on mitochondrial membrane depolarization at 2 uM after 18 hrs by DiOC6 staining-based FACS analysis (reference value: 2%). In kind it is functional.
The test system of assay [11] is MCF7. In words: Cell cycle arrest in human MCF7 cells assessed as accumulation at G0/G1 phase at 2 uM after 24 hrs by flow cytometric analysis (reference value: 18.4%). In kind it is functional.
For assay [12], the system named is MCF7. Briefly: Induction of apoptosis in human MCF7 cells assessed as early apoptotic cells at 2 uM after 24 hrs by Annexin-V FITC/propidium iodide staining-based FACS analysis (reference value: 0.5%). In kind it is functional.
In assay [13] the test system is MCF7. Briefly: Cell cycle arrest in human MCF7 cells assessed as accumulation at G2/M phase at 2 uM after 48 hrs by flow cytometric analysis (reference value: 8.1%). In kind it is functional.
For assay [14], the system named is MCF7. Briefly: Induction of intrinsic apoptosis in human MCF7 cells assessed as effect on mitochondrial membrane depolarization by measuring mean fluorescence intensity at 2 uM after 18 hrs by DiOC6 staining-based FACS analysis (reference value: 463). In kind it is functional.
In assay [15] the test system is MCF7. In words: Induction of apoptosis in human MCF7 cells assessed as late apoptotic cells at 2 uM after 24 hrs by Annexin-V FITC/propidium iodide staining-based FACS analysis (reference value: 5.4%). In kind it is functional.

Turning to `O=C(/C=C/c1cc(-c2ccc3c(c2)OCO3)n[nH]1)c1ccc(Cl)c(Cl)c1`, the half-maximal inhibitory concentration (IC50) was determined as 14.8 µM in assay [1] and 10.8 µM in [2].

With `COc1cc(-c2cc(/C=C/C(=O)c3ccccc3)[nH]n2)cc(OC)c1OC`, the IC50 in assay [1] came to 2.3 µM; in assay [2], 2.1 µM.

Regarding `O=C(/C=C/c1cc(-c2ccc3c(c2)OCO3)n[nH]1)c1ccc2c(c1)OCO2`, the results for the IC50 in assay [1] and in assay [2] were 3.3 µM and 2.1 µM, respectively.

For `COc1ccc(C(=O)/C=C/c2cc(-c3ccc4c(c3)OCO4)n[nH]2)cc1`, the IC50 in [1] and in assay [2] was 3.5 µM in each case.

As for `O=C(/C=C/c1cc(-c2ccc3c(c2)OCO3)n[nH]1)c1ccccc1`, the values for the IC50 in [1] and in assay [2] were 12.1 µM and 8 µM, respectively.

For `COc1ccc(/C=C\c2cc(OC)c(OC)c(OC)c2)cc1O` [COMBRETASTATIN A4], the Activity in assay [3] is recorded as 56.3%; in assay [4], 7.6%; in assay [6], 2.4%; in [7], 1.3%; in [8], 46.3%; in assay [9] it was 12%. Further, the Activity in assay [10] was 46%; in [11] it was 0%; in [12] it was 6.1%; in [13], 85.5%; in assay [15], 16.8%. For the same compound, the viability at 2 µM in assay [5] stood at 75.8%. Further, the IC50 in [1] came out at 0.17 µM; in [2], 0.12 µM. Besides, the Flu intensity in assay [14] was 558.

Take `COc1ccc(-c2cc(/C=C/C(=O)c3ccc4c(c3)OCO4)[nH]n2)cc1`: the half-maximal inhibitory concentration (IC50) worked out at 3.3 µM in assay [1] and 2.5 µM in assay [2].

For the compound `COc1ccc2c(c1)C/C(=C\c1cc(-c3cc(OC)c(OC)c(OC)c3)n[nH]1)C2=O`, the 50% inhibitory concentration (IC50) was found to be 2 µM in [1] and 2.1 µM in assay [2].

Consider `O=C(/C=C/c1cc(-c2ccc3c(c2)OCO3)n[nH]1)c1ccc(F)c(F)c1`, for which the IC50 in assay [1] is 12.1 µM; in assay [2], 8.1 µM.

Take `COc1ccc(-c2cc(/C=C/C(=O)c3cc(OC)c(OC)c(OC)c3)[nH]n2)cc1`: the figures for the IC50 in [1] and in assay [2] were 2.4 µM and 2 µM, respectively.

As for `O=C1/C(=C/c2cc(-c3ccc4c(c3)OCO4)n[nH]2)CCc2ccccc21`, the concentration for half-maximal inhibition (IC50) in [1] is 12.6 µM; in assay [2] it was 9.9 µM.

As to `Nc1ccc(C(=O)/C=C/c2cc(-c3ccc4c(c3)OCO4)n[nH]2)cc1`, the IC50 worked out at 5.1 µM in assay [1] and 3.5 µM in assay [2].

On to `COc1cc(-c2cc(/C=C/C(C)=O)[nH]n2)cc(OC)c1OC`, for which the IC50 came to 27.3 µM in assay [1] and 20.1 µM in assay [2].

Turning to `COc1cc(-c2cc(/C=C3\Cc4ccccc4C3=O)[nH]n2)cc(OC)c1OC`, the IC50 came to 7.1 µM in [1] and 4.8 µM in [2].

In the case of `CC(=O)/C=C/c1cc(-c2ccc3c(c2)OCO3)n[nH]1`, the results for the concentration for half-maximal inhibition (IC50) in [1] and in assay [2] were 20.2 µM and 21.6 µM, respectively.

Turning to `COc1ccc(C(=O)/C=C/c2cc(-c3ccc4c(c3)OCO4)n[nH]2)cc1F`, the IC50 in [1] worked out at 15.9 µM; in [2] it was 13.5 µM.

Regarding `O=C1CCCC/C1=C\c1cc(-c2ccc3c(c2)OCO3)n[nH]1`, the half-inhibitory concentration (IC50) in [1] was found to be 11.8 µM; in [2] it was 15.1 µM.

Consider `O=C1/C(=C/c2cc(-c3ccc4c(c3)OCO4)n[nH]2)Cc2ccccc21`, for which the IC50 came to 8.3 µM in assay [1] and 5.1 µM in assay [2].

As to `O=C(/C=C/c1cc(-c2ccc3c(c2)OCO3)n[nH]1)c1ccc(Cl)cc1`, the IC50 in assay [1] was determined as 17.5 µM; in assay [2], 15 µM.

For the compound `COc1ccc2c(c1)C/C(=C\c1cc(-c3ccc4c(c3)OCO4)n[nH]1)C2=O`, the IC50 in [1] stood at 4.1 µM; in [2] it was 2.7 µM.

With `COc1cc(-c2cc(/C=C3\CCc4ccccc4C3=O)[nH]n2)cc(OC)c1OC`, the IC50 in assay [1] was 9.5 µM; in assay [2] it was 8.5 µM.

Turning to `COc1cc(-c2cc(/C=C/C(=O)c3ccc(Cl)cc3)[nH]n2)cc(OC)c1OC`, the IC50 worked out at 26 µM in assay [1] and 11.6 µM in assay [2].

Turning to `COc1cc2c(cc1OC)C(=O)/C(=C/c1cc(-c3cc(OC)c(OC)c(OC)c3)n[nH]1)C2`, the half-inhibitory concentration (IC50) came out at 2.5 µM in [1] and 2 µM in [2].

With `COc1cc(-c2cc(/C=C3\CCCCC3=O)[nH]n2)cc(OC)c1OC`, the results for the 50% inhibitory concentration (IC50) in [1] and in assay [2] were 17.8 µM and 10.1 µM, respectively.

On to `COc1ccc(C(=O)/C=C/c2cc(-c3cc(OC)c(OC)c(OC)c3)n[nH]2)cc1F`, for which the IC50 in assay [1] was determined as 2.7 µM; in assay [2] it was 3 µM.

As for `COc1cccc2c1C(=O)c1c(O)c3c(c(O)c1C2=O)C[C@@](O)(C(=O)CO)C[C@@H]3O[C@H]1C[C@H](N)[C@H](O)[C@H](C)O1.Cl` [DOXORUBICIN HYDROCHLORIDE], the Activity in assay [3] came out at 1.2%; in assay [6], 59.1%; in assay [8], 16.2%; in assay [9], 40.1%; in assay [11], 82.5%; in [13], 0.8%.
